Source: the supplement of paper PMC13380429

Columns and labels:
Details in all cases: 72 h
[1] = system: Caco-2; test: cell viability relative to DMSO; higher = less toxic
[2] = system: Calu-3; test: as above
[3] = system: HepG2; test: as above
[4] = system: Vero E6; test: as above
[5] = system: Caco-2; test: relative viability EC50 (midpoint between 100% and the lowest measured viability); higher = less toxic
[6] = system: Calu-3; test: as above
[7] = system: HepG2; test: as above
[8] = system: Vero E6; test: as above
[9] = system: Caco-2; test: drug sensitivity score (DSS) for viability; higher = more toxic; extreme values may be limits of the assay
[10] = system: Calu-3; test: as above
[11] = system: HepG2; test: as above
[12] = system: Vero E6; test: as above
[13] = system: U2OS; test: cell viability relative to DMSO; higher = less toxic
[14] = system: U2OS; test: relative viability EC50 (midpoint between 100% and the lowest measured viability); higher = less toxic
[15] = system: U2OS; test: drug sensitivity score (DSS) for viability; higher = more toxic; extreme values may be limits of the assay

CCOC(=O)CNC(=O)[C@@H]1CCCN1C(=O)Cc1ccccc1 [DVD-111]
cell viability ([1]; 1 nM): 110%
cell viability ([1]; 10 nM): 102%
cell viability ([1]; 100 nM): 114%
cell viability ([1]; 1000 nM): 97%
cell viability ([1]; 10000 nM): 107%
cell viability ([2]; 1 nM): 106%
cell viability ([2]; 10 nM): 98.4%
cell viability ([2]; 100 nM): 106%
cell viability ([2]; 1000 nM): 93.7%
cell viability ([2]; 10000 nM): 116%
cell viability ([3]; 1 nM): 98.8%
cell viability ([3]; 10 nM): 97.2%
cell viability ([3]; 100 nM): 90.9%
cell viability ([3]; 1000 nM): 93.5%
cell viability ([3]; 10000 nM): 96.9%
cell viability ([4]; 1 nM): 103%
cell viability ([4]; 10 nM): 105%
cell viability ([4]; 100 nM): 98.8%
cell viability ([4]; 1000 nM): 104%
cell viability ([4]; 10000 nM): 101%
relative viability EC50 [5]: > 10 µM
relative viability EC50 [6]: > 10 µM
relative viability EC50 [7]: > 10 µM
relative viability EC50 [8]: > 10 µM
drug sensitivity score [9]: 0
drug sensitivity score [10]: 0
drug sensitivity score [11]: 0
drug sensitivity score [12]: 0

CCOC(=O)c1ncn2c1CN(C)C(=O)c1cc(N=[N+]=[N-])ccc1-2 [Ro-15-4513]
cell viability ([1]; 1 nM): 96.2%
cell viability ([1]; 10 nM): 100%
cell viability ([1]; 100 nM): 94.6%
cell viability ([1]; 1000 nM): 99.6%
cell viability ([1]; 10000 nM): 109%
cell viability ([2]; 1 nM): 103%
cell viability ([2]; 10 nM): 93.9%
cell viability ([2]; 100 nM): 97%
cell viability ([2]; 1000 nM): 102%
cell viability ([2]; 10000 nM): 108%
cell viability ([3]; 1 nM): 107%
cell viability ([3]; 10 nM): 92.2%
cell viability ([3]; 100 nM): 102%
cell viability ([3]; 1000 nM): 99.1%
cell viability ([3]; 10000 nM): 112%
cell viability ([4]; 1 nM): 94.6%
cell viability ([4]; 10 nM): 94%
cell viability ([4]; 100 nM): 99.3%
cell viability ([4]; 1000 nM): 97.2%
cell viability ([4]; 10000 nM): 104%
relative viability EC50 [5]: > 10 µM
relative viability EC50 [6]: > 10 µM
relative viability EC50 [7]: > 10 µM
relative viability EC50 [8]: > 10 µM
drug sensitivity score [9]: 0
drug sensitivity score [10]: 0
drug sensitivity score [11]: 0
drug sensitivity score [12]: 0

COc1cc2c(cc1OC)C(c1ccc(N)cc1)=NNC(=O)C2 [CFM-2]
cell viability ([1]; 1 nM): 93.1%
cell viability ([1]; 10 nM): 102%
cell viability ([1]; 100 nM): 98.7%
cell viability ([1]; 1000 nM): 95.5%
cell viability ([1]; 10000 nM): 98%
cell viability ([2]; 1 nM): 95.5%
cell viability ([2]; 10 nM): 100%
cell viability ([2]; 100 nM): 98.3%
cell viability ([2]; 1000 nM): 112%
cell viability ([2]; 10000 nM): 101%
cell viability ([3]; 1 nM): 109%
cell viability ([3]; 10 nM): 97.2%
cell viability ([3]; 100 nM): 104%
cell viability ([3]; 1000 nM): 113%
cell viability ([3]; 10000 nM): 71%
cell viability ([13]; 1 nM): 97.1%
cell viability ([13]; 10 nM): 98.2%
cell viability ([13]; 100 nM): 95.4%
cell viability ([13]; 1000 nM): 95.5%
cell viability ([13]; 10000 nM): 87.1%
cell viability ([4]; 1 nM): 98.7%
cell viability ([4]; 10 nM): 93.8%
cell viability ([4]; 100 nM): 96.6%
cell viability ([4]; 1000 nM): 96.1%
cell viability ([4]; 10000 nM): 100%
relative viability EC50 [5]: > 10 µM
relative viability EC50 [6]: > 10 µM
relative viability EC50 [14]: > 10 µM
relative viability EC50 [8]: > 10 µM
drug sensitivity score [9]: 0
drug sensitivity score [10]: 0
drug sensitivity score [11]: 0.8
drug sensitivity score [15]: 0
drug sensitivity score [12]: 0

CCN(CC)C(=O)[C@@]1(c2ccccc2)C[C@H]1CN [milnacipran]
cell viability ([1]; 1 nM): 99.9%
cell viability ([1]; 10 nM): 87.3%
cell viability ([1]; 100 nM): 87.5%
cell viability ([1]; 1000 nM): 99.8%
cell viability ([1]; 10000 nM): 98.7%
cell viability ([2]; 1 nM): 106%
cell viability ([2]; 10 nM): 93.5%
cell viability ([2]; 100 nM): 97.9%
cell viability ([2]; 1000 nM): 95%
cell viability ([2]; 10000 nM): 97.9%
cell viability ([3]; 1 nM): 101%
cell viability ([3]; 10 nM): 86.7%
cell viability ([3]; 100 nM): 98.9%
cell viability ([3]; 1000 nM): 107%
cell viability ([3]; 10000 nM): 90.9%
cell viability ([4]; 1 nM): 94.6%
cell viability ([4]; 10 nM): 102%
cell viability ([4]; 100 nM): 97.8%
cell viability ([4]; 1000 nM): 102%
cell viability ([4]; 10000 nM): 98.2%
relative viability EC50 [5]: > 10 µM
relative viability EC50 [6]: > 10 µM
relative viability EC50 [7]: > 10 µM
relative viability EC50 [8]: > 10 µM
drug sensitivity score [9]: 0
drug sensitivity score [10]: 0
drug sensitivity score [11]: 0
drug sensitivity score [12]: 0
